Consider eight sequences from PMC9131871, “Impact of Micropolymorphism Outside the Peptide Binding Groove in the Clinically Relevant Allele HLA-C*14 on T Cell Responses in HIV-1 Infection” (Journal of Virology, 2022).

The experiment deals with HLA-C*14:03 (Homo sapiens, UniProt P10321, A176E/A330V/A35S/A97T/C350S/D114A/D33S/L171W/L180R/L218V/M285V/M309V/M331V/P208H/Q277E/Q291P/R121W/R243W/R45H/S123F/S297R/S48A/T329A/T363A/V319A). As to the kind of experiment: HLA stabilization assay on RMA-S-C1403 cells. To be noted: for binding to HLA-C*14:03 (stabilization of surface HLA expression): 100 μM peptide, 26°C 1 h then 37°C 3 h, MAb DT-9 staining, flow cytometry, triplicate assays; for relative affinity in hierarchy of peptide-HLA-C*14 binding (HLA-C*14:03): peptide concentrations from 0.1 to 100 μM, 6 epitope peptides compared. It is filed as cell-based. An excerpt:
We next sought to confirm the HLA-C*14:02/C*14:03 restriction of the HIV-1 peptides identified by LC-MS/MS. First, we tested their ability to bind to HLA-C*14:02 or HLA-C*14:03 using HLA stabilization assays. Of the 25 HIV-1 peptides, three Env peptides, Env SI8, Env AM11, and Env VM9, are located in variable regions V2 and V3. In addition, Pol AF10, Pol PF8, Pol VWL9, and Env YI9 are located in regions where high sequence variation is reported in the LANL database. Therefore, we excluded these peptides from further analysis. The other 18 peptides were synthesized and tested for binding to HLA-C*14:02/C*14:03 by analyzing their ability to stabilize surface HLA expression on TAP-defective RMA-S cell lines expressing HLA-C*14:02 (RMA-S-C1402) or HLA-C*14:03 (RMA-S-C1403). These RMA-S cell lines express equivalent levels of HLA-C*14:02 and HLA-C*14:03 on the cell surface at 26°C, and surface HLA expression declines to very low levels when the cells are warmed to 37°C in the absence of exogenously added stabilizing peptides (Fig. 2A). Peptide binding was determined by evaluating whether HLA-I expression was stabilized in the presence of 100 μM peptide.
FIG 2 HLA-C*14:02/14:03 binding of HIV-1 peptides eluted from NL4-3-infected .221-C1402 and .221-C1403 cells as assessed by HLA stabilization assay using RMA-S cell lines. (A) Histogram plots showing surface expression of HLA-C*14:02 or HLA-C*14:03 on RMA-S-C1402 or RMA-S-C1403 cells at 26°C and after cells cultured at 26°C had been warmed to 37°C for 3 h. MFI values of cells cultured at 26°C were 27.4 for HLA-C*14:02 and 28.1 for HLA-C*14:03. MFI values of cells cultured at 37°C for 3 h were 5.0 for HLA-C*14:02 and 6.54 for HLA-C*14:03. (B) Analysis of binding of 14 HIV-1 NL4.3 peptides identified by LC-MS/MS to HLA-C*14:02 (blue) or HLA-C*14:03 (red) as measured in HLA class I stabilization assays using RMA-S-C1402 or RMA-S-C1403 cells. (C) Analysis of binding of 9 additional variant peptides to HLA-C*14:02 (blue) or C*14:03 (red). For panels B and C, peptides were tested at a concentration of 100 μM. Results are plotted as percent surface HLA-I expression relative to that at 26°C, calculated as the ratio of the MFI of peptide-pulsed RMA-S-C1402 or RMA-S-C1403 cells to that of control (non-peptide-pulsed) cells kept at 26°C, multiplied by 100. Means and standard deviations (SDs) from triplicate assays are shown. Statistical analyses were performed by unpaired t test. The P values were corrected for multiple testing. *, P < 0.05 and q < 0.05; **, P < 0.01 and q < 0.03; ***, P < 0.001 and q < 0.005.
The relative affinity of peptide binding to HLA-C*14:02 and -C*14:03 was examined using RMA-S-C1402 and RMA-S-C1403 cells as previously described ([15]). Briefly, RMA-S cells were cultured at 26°C for 16 h, pulsed with peptides at 26°C for 1 h, and subsequently incubated at 37°C for 3 h. Staining of cell surface HLA-C molecules was performed with the HLA-C-reactive monoclonal antibody (MAb) DT-9 ([48]), a gift from Mary Carrington, NIH, and fluorescein isothiocyanate (FITC)-conjugated sheep anti-mouse IgG (Jackson ImmunoResearch). Staining data were acquired on a FACSCanto II instrument (BD Biosciences) and analyzed using FlowJo 10.7.1 software. Relative HLA expression was calculated as the ratio of the mean fluorescence intensity (MFI) of peptide-pulsed RMA-S-C1402 cells or RMA-S-C1403 cells to that of control (non-peptide-pulsed) cells kept at 26°C, multiplied by 100 to express the values for peptide-pulsed cells as a percentage of that for the control cells at 26°C.

With “VYYDPSKDL [Pol VYL9, HIV-1 NL4-3 Pol 472–480 peptide …]”, the “binding to HLA-C*14:03 (stabilization of surface HLA expression)” value is recorded as “low”.
As for AFSPEVIPM [Gag AM9], the “relative affinity in hierarchy of peptide-HLA-C*14 binding (HLA-C*14:03)” value is “highest”.
As to “RFDSRLAF [Nef RF8, HIV-1 NL4-3 Nef 184–191 peptide RFDSRLAF]”, the “binding to HLA-C*14:03 (stabilization of surface HLA expression)” value is reported as “did not exhibit detectable binding”.
Still for that read-out and setting: as for “FMTKALGI [Tat FI8, HIV-1 NL4-3 Tat 38–45 peptide FMTKALGI]”, the entry is “did not exhibit detectable binding”.
As for AFHHVAREL [Nef AL9], the “relative affinity in hierarchy of peptide-HLA-C*14 binding (HLA-C*14:03)” value is listed as “lowest”.
On to “FFREDLAF [Pol FF8, HIV-1 NL4-3 Pol 1–8 peptide FFREDLAF]”, for which the “binding to HLA-C*14:03 (stabilization of surface HLA expression)” value was “low”.
Turning to “ASGYIEAEV [Pol AV9, HIV-1 NL4-3 Pol 795–803 peptide …]”, the “binding to HLA-C*14:03 (stabilization of surface HLA expression)” value is given as “did not exhibit detectable binding”.
As to “FLGAAGSTM [Env FM9, HIV-1 NL4-3 Env 522–530 peptide …]”, the “binding to HLA-C*14:03 (stabilization of surface HLA expression)” value is given as “did not exhibit detectable binding”.
